From US7112579B2, “26,27-Homologated-20-EPI-2-alkyl-19-nor-vitamin D compounds” (Wisconsin Alumni Research Foundation, priority 1997, dated 2006)
Where two headings read alike, the source gives them in different places.

Assays:
[1] = system: human promyelocyte HL-60 cells; assay: Differentiation of HL-60 promyelocytes into monocytes (NBT reduction); assay type: cell-based; details: for HL-60 Differentiation Activity ratio: analog average ED50 / ED50 for 1α,25-(OH)2D3; for HL-60 Differentiation ED50: concentration inducing 50% maturation (NBT)
Text: In the next assay, the cellular activity of the synthesized compounds was established by studying their ability to induce differentiation of human promyelocyte HL-60 cells into monocytes.

[2] = system: bone calcium mobilization (serum Ca); assay: Bone calcium mobilization (serum Ca) in vitamin D-deficient rats on a low-calcium diet (3 weeks), 7 daily i.p. doses; assay type: in vivo, rat
[3] = target: T1, porcine intestinal vitamin D receptor (Sus scrofa, UniProt A3RGC1); assay: Competitive binding to the porcine intestinal vitamin D receptor ([3H]-1,25-(OH)2-D3 displacement); parameters: species or system pig; details: for VDR Binding ratio: analog average ED50 / ED50 for 1α,25-(OH)2D3; for EC50: concentration for 50% displacement of radiolabeled 1α,25-(OH)2D3, read-out: VDR Binding ED50
T1 construct: from tissue; host or cells: porcine intestine
T1 sequence (A3RGC1 1-427): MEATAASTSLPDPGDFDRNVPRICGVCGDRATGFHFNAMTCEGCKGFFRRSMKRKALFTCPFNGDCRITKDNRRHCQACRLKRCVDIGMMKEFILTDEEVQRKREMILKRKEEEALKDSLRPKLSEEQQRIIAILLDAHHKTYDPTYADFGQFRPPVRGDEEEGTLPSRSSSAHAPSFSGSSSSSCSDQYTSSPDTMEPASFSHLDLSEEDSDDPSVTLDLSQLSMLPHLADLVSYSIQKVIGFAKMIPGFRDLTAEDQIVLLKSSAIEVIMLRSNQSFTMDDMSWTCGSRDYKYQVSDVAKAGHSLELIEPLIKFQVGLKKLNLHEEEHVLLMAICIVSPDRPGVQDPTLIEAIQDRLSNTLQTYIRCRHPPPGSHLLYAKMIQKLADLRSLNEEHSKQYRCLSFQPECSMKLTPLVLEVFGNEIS

[4] = system: intestinal calcium transport; assay: Support of intestinal calcium transport in vitamin D-deficient rats on a low-calcium diet (3 weeks), 7 daily i.p. doses; assay type: in vivo, rat
[5] = Table 7 panel 2, 65 pmol daily x 7 i.p.
[6] = Table 7 panel 2, 260 pmol daily x 7 i.p.
[7] = Table 9 panel 1, 32 pmol daily x 7 i.p.
[8] = Table 9 panel 1, 65 pmol daily x 7 i.p.
[9] = Table 9 panel 2, 65 pmol daily x 7 i.p.
[10] = Table 9 panel 2, 260 pmol daily x 7 i.p.

## CCC(O)(CC)CCCC(C)C1CCC2C(=CC=C3CC(O)C(C)C(O)C3)CCCC21C [Compound 37, 20(S)-1α,25-Dihydroxy-2β-methyl-26,27-dihomo-19-norvitamin D3]
[1]; Table 6
  HL-60 Differentiation Activity ratio: 0.03
  HL-60 Differentiation ED50: 0.11 nM
[2]; [5]
  Serum Ca (mean ± SEM): 5.0 ± 0.0^d^1
[2]; [6]
  Serum Ca (mean ± SEM): 9.9 ± 0.3^d^2
[3]; Table 6
  VDR Binding ratio: 5.5
  EC50: 4.8 nM
[4]; [5]
  Ca Transport S/M (mean ± SEM): 4.7 ± 0.6^d^1 S/M
[4]; [6]
  Ca Transport S/M (mean ± SEM): 5.2 ± 0.6^d^2 S/M

## CC1[C@H](O)CC(=C/C=C2\CCC[C@@]3(C)C2CCC3[C@@H](C)CCCC2(O)CCCC2)C[C@H]1O (stereo partly drawn) [Compound 48, 20(S)-1α,25-Dihydroxy-26,27-dimethylene-2α-methyl-19-norvitamin D3]
[1]; Table 8
  HL-60 Differentiation Activity ratio: 0.01
  HL-60 Differentiation ED50: 0.044 nM
[2]; [7]
  Serum Ca (mean ± SEM): 6.9 ± 0.5^d^1
[2]; [8]
  Serum Ca (mean ± SEM): 9.0 ± 0.3^d^2
[3]; Table 8
  VDR Binding ratio: 4.0
  EC50: 3.5 nM
[4]; [7]
  Ca Transport S/M (mean ± SEM): 7.9 ± 1.0^d^1 S/M
[4]; [8]
  Ca Transport S/M (mean ± SEM): 9.0 ± 1.0^d^2 S/M

## CC1[C@H](O)CC(=C/C=C2\CCC[C@@]3(C)C2CCC3[C@@H](C)CCCC2(O)CCCC2)C[C@H]1O (stereo partly drawn) [Compound 49, 20(S)-1α,25-Dihydroxy-26,27-dimethylene-2β-methyl-19-norvitamin D3]
[1]; Table 8
  HL-60 Differentiation Activity ratio: 0.08
  HL-60 Differentiation ED50: 0.32 nM
[2]; [9]
  Serum Ca (mean ± SEM): 5.8 ± 0.2^d^1
[2]; [10]
  Serum Ca (mean ± SEM): 9.5 ± 0.1^d^2
[3]; Table 8
  VDR Binding ratio: 2.6
  EC50: 2.3 nM
[4]; [9]
  Ca Transport S/M (mean ± SEM): 4.9 ± 0.6^d^1 S/M
[4]; [10]
  Ca Transport S/M (mean ± SEM): 5.4 ± 0.7^d^2 S/M
